Like-named read-outs stand apart in the source and are kept apart here.
Legend:
[1] = patients with normal renal function; cited from earlier work
[2] = cited from earlier work
[3] = ESRD patient, cited from earlier work
[4] = cited from earlier work; remark: listed apart in the source

| Compound | solubility in the dialysis solution (hemodialysis dialysate) | solubility in peritoneal dialysis solutions (peritoneal dialysis solutions) | serum half-life [1] [h] | elimination route ([2]; anuric dogs) | half-life ([2]; anuric dogs) [h] | metabolic clearance rate ([2]; dogs, during renal failure) | volume of distribution ([2]; dogs, during renal failure) | distribution ([2]; normal and anuric mongrel dogs) | cleared renally ([2]; normal dogs) [%] | half-life ([2]; normal dogs) [h] | serum sodium thiosulfate concentration ([3]; 15 min after infusion) [µg/mL] | serum sodium thiosulfate concentration ([3]; after a 4-h hemodialysis session) [µg/mL] | serum sodium thiosulfate concentration ([3]; before hemodialysis (52 h after administration)) [µg/mL] | calculated half life [3] [h] | solubility in water [4] | water solubility relative to calcium phosphate [4] |
| --- | --- | --- | --- | --- | --- | --- | --- | --- | --- | --- | --- | --- | --- | --- | --- | --- |
| O=S([O-])([O-])=S.[Na+].[Na+] [sodium thiosulfate] | soluble | soluble | 0.25 | primarily through the biliary system | 3.98 | decreased drastically | doubled | distributes rapidly throughout the extracellular space | > 98 | 0.78 | 110 | 0 | 1.2 | 7.97 | soluble in water | – |
| O=S([O-])([O-])=S.[Ca+2] [Calcium thiosulfate] | – | – | – | – | – | – | – | – | – | – | – | – | – | – | – | many folds more water soluble than calcium phosphate |
